ChEMBL document CHEMBL1155290, “Synthesis and anti-HIV activity evaluation of 2-(4-(naphthalen-2-yl)-1,2,3-thiadiazol-5-ylthio)-N-acetamides as novel non-nucleoside HIV-1 reverse transcriptase inhibitors” (Eur J Med Chem, 2009)

Experiments:
[1] = Cytotoxicity against human MT4 cells as reduction in cell viability after 5 days by MTT assay; assay type: cell-based
[2] = Selective index, ratio of CC50 for human MT4 cells to EC50 for HIV1 3B

Row | SMILES | CC50 at 120 h [1] | Ratio CC50/EC50 [2]
1 | CC(C)Nc1cccnc1N1CCN(C(=O)c2cc3cc(NS(C)(=O)=O)ccc3[nH]2)CC1 [DELAVIRDINE] | > 3.83 µM | >12
2 | O=C1Nc2ccc(Cl)cc2[C@@](C#CC2CC2)(C(F)(F)F)O1 [EFAVIRENZ] | > 6.34 µM | >1434
3 | Cc1ccnc2c1NC(=O)c1cccnc1N2C1CC1 [NEVIRAPINE] | > 15 µM | 
4 | Cc1cn([C@H]2C[C@H](N=[N+]=[N-])[C@@H](CO)O2)c(=O)[nH]c1=O [ZIDOVUDINE] | > 93.5 µM | >6192
